In patent publication US9983218B2, “Indole and indoline derivatives and methods of use thereof” (AbbVie Inc., priority 2008, dated 2018):
“Also recorded” adds a separate entry of the source.

Assays:
[1] = system: primary postnatal (P0) cortical cells; assay: Neurite outgrowth assay (Aβ1-42-induced reduction of neurite outgrowth, high content microscopy); type: cell-based, rat; conditions: for Emax: Rattus norvegicus, maximum response relative to 300 nM dimebolin, at the concentration given, read-out: Maximum Effect (of % 300 nM Dimebolin)
Method: In addition to PC12 cells, other cellular model systems may also be used. Rat cortical cells were cultured and prepared for high content microscopy analysis as previously described (Hu, M.; Schurdak, M. E.; et al. High content screen microscopy analysis of Aβ1-42-induced neurite outgrowth reduction in rat primary cortical neurons: Neuroprotective effects of α7 neuronal nicotinic acetylcholine receptor ligands. Brain Res. 2007, 1151, 227-235.). Briefly, cortical cell cultures were plated at density of 5×10^5 cells/mL onto poly-D-lysine coated 96-well plates and maintained in a cell incubator at 37° C. with 5% CO2. Experiments were performed using 6-7 day-old cortical cell cultures by treating with test compounds. In some experiments, the effect of test compounds on reversing Aβ toxicity were also measured (Hu, M.; Schurdak, M. E.; et al. High content screen microscopy analysis of Aβ1-42-induced neurite outgrowth reduction in rat primary cortical neurons: Neuroprotective effects of α7 neuronal nicotinic acetylcholine receptor ligands. Brain Res. 2007, 1151, 227-235.). For assessment of neuroprotective effects, cells were first pretreated with test compounds for about 5 hours. Medium was then replaced with the medium containing freshly prepared about 5 μM Aβ1-42 peptide in the absence or presence of the test compounds for 3 days. The untreated group contained the same percentage of vehicle (DMSO) as in the treatment groups. Cells were fixed with approximately 4% paraformaldehyde containing 0.5% Hoechst 33342 for about 15 minutes, followed by three washes using PBS (pH 7.4) and blocked with 10% donkey serum in PBS for 1 hour at room temperature. The cells were then incubated overnight at about 4° C. with mouse anti-tubulin monoclonal antibody (1:100) for staining neurons and rabbit anti-GFAP (1:1000) for staining glia. In the next day, cells were incubated with FITC-labeled anti-mouse and TRITC-labeled anti-rabbit antibodies (1:1000) for about 1 hour at room temperature. After fixing and staining the cells, nuclei (360/400 nm excitation and 465/300 nm emission filters), neuron (475/350 nm excitation and 535/400 nm emission filters) and glial cell (535 nm excitation and 610 nm emission filters) images were collected using the ImageExpress Micro automatic fluorescent microscopy system (Molecular Devices, Sunnyvale, Calif.) employing a Nikon 10× Plan Fluor objective and Cool Snap HQ CCD camera. The Neurite Outgrowth module in the MetaMorph Imaging software was used to automatically count total cell number, number of neuron cells, and the extent of neurite outgrowth.
In the graph of FIG. 2, 100% response was the response observed for untreated cells. Exposure to Aβ1-42 produced a decrease in neurite outgrowth. Treatment of cells with compounds prior to and concomitantly with Aβ1-42 gave a neuroprotective effect with neurite outgrowth maintained or enhanced relative to untreated cells.

[2] = system: SK-N-SH human neuroblastoma cells; assay: Serum deprivation/JC-1 mitochondrial membrane potential (MMP) assay; type: cell-based
Summary of the method: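 Cells were serum-deprived ~18 h in MEM with or without compound (DMSO ≤1%), then stained with JC-1 for 35 min at 37° C. The red/green fluorescence ratio (560/595 vs 485/535 nm) was normalized to the peak response of 10 μM dimebolin. EC50 came from one curve fit to mean data (n=2-3, duplicates).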

mice = assay: Inhibitory avoidance in mouse; type: in vivo; conditions: 24-hour recall, significant at 0.11 mg/kg and 1.1 mg/kg, FIG. 4
Method: Inhibitory Avoidance in Mouse: The inhibitory avoidance task involves the uses of a two-compartment step through apparatus (Ugo Basile, Collegeville, Pa.) that measures the animal's ability to remember a brief noxious stimulus (foot shock), and is considered a measure of trial learning, and memory consolidation. Briefly, mice were placed in a lighted compartment of the apparatus where the latency to enter into the preferred dark compartment is recorded. […] Retention testing was conducted 24 hours later with the animal again placed in the lighted compartment where its latency to reenter the dark side of the apparatus was measured (no shock). Increasing retention latency was regarded as an index of memory consolidation (Bitner, R. S.; Bunnelle, W. H.; et al. Broad-spectrum efficacy across cognitive domains by α7 nicotinic acetylcholine receptor agonism correlates with activation of ERK1/2 and CREB phosphorylation pathways. J. Neurosci. 2007, 27(39), 10578-10587.).

[3] = system: mouse model of multiple sclerosis; conditions: in vivo administration; cited from earlier work
PC12 cells = assay: Number of neuron-like cells in nerve growth factor-differentiated PC12 cells (HCS microscopy); type: cell-based; conditions: NGF-differentiated PC12 cells, 24 hours post-treatment, normalized to 10 μM dimebolin; FIG. 1
Method: For example, studies were conducted using PC12 cells plated in 96-well plates, treated with or without nerve growth factor (100 ng/mL) for 6 days. Compounds were then added at various concentrations (ranging from 0.1 nM to 30 μM), and incubated for 24 hours. Cells were then fixed and stained by neuron marker β-tubulin (green), and nuclei were stained by Hoechst 33342 (blue). Images were collected using the ImageXpress Micro automatic fluorescent microscopy system (Molecular Devices, Sunnyvale, Calif.) employing a Nikon 10× Plan Fluor objective and Cool Snap HQ CCD camera. The Neurite Outgrowth module in the MetaMorph Imaging software was used to automatically count neuron-like number, and the extent of neurite outgrowth (See, FIG. 1).

Male Sprague Dawley rats = assay: Analgesic effect against neuropathic pain (L5/L6 spinal nerve ligation, von Frey filaments); type: in vivo; conditions: rat
Method: Animals were prepared for testing, by use of a surgical procedure that induces neuropathic pain in one paw. Male Sprague Dawley rats were purchased from Charles River (Portage, Mich.). Prior to surgery, animals were housed in groups and maintained in a temperature-regulated environment. Following nerve ligation surgery, animals were housed in groups, and had access to food and water ad libitum.
The L5 and L6 spinal nerves of anesthetized rats were tightly ligated in a manner described previously (see Kim and Chung, Pain (1992) vol. 50 pp. 355-363). An incision was made on the dorsal portion of the hip and the muscle was blunt-dissected to reveal the spinal processes. The L6 transverse process was removed, and the left side L5 and L6 spinal nerves were tightly ligated with 5.0 braided silk suture. The wound was cleaned, the membrane sewn with 4.0 dissolvable Vicryl suture and the skin closed with wound clips. The paw affected by the surgical procedure (the left paw) develops an allodynic response, a hypersensitivity to mechanical and other stimuli; neuropathic pain is assessed as an increased sensitivity in the surgically affected (left) allodynic paw compared to the control paw on the right side, and measured by comparing the response of the (left side) allodynic paw to the response of the unaffected right side control paw.
For the assessment of neuropathic pain, mechanical allodynia in the affected paw of animals that had undergone spinal nerve ligation was evaluated using testing with von Frey filaments. As described previously by S. R. Chaplan, et al (“Quantitative assessment of tactile allodynia in the rat paw” J. Neurosci. Meth. (1994) vol. 53 pp. 55-63), two weeks following surgery rats were acclimated to a testing box constructed of plexiglass with a wire mesh floor which allowed access to the plantar surface of the animal's hindpaws. […] The efficacy of the compound in reducing neuropathic pain at different doses was determined by comparing response in the surgery-affected paw versus the response in the control paw. […]

[4] = system: primary rat cortical neurons; conditions: comparable to that evoked by BDNF; cited from earlier work
[5] = system: Patients with mild-to-moderate Alzheimer's disease; conditions: cited from earlier work

Cc1ccc2c(c1)c1c(n2CCc2ccc(C)nc2)C[C@@H]2CC[C@H]1N2 (single isomer, unassigned) [Example 5]
Emax [1]: 123%
Aβ1-42-induced reduction of neurite outgrowth ([1]; pretreatment about 5 hours, then about 5 μM Aβ1-42 with test compound for 3 days, FIG. 2): significant attenuation; also recorded: neurite outgrowth levels similar to or enhanced relative to untreated control cells
Emax ([2]; Homo sapiens, SK-N-SH, percent maximal intensity in JC-1 ratio normalized to 10 μM dimebolin, read-out: JC-1 max %): 209%
EC50 ([2]; Homo sapiens, SK-N-SH cells, serum deprivation ~18 hours, JC-1 ratio normalized to peak value for 10 μM dimebolin, single curve fit to mean data of n=2-3, read-out: EC50): 13 µM
maintenance of mitochondrial function (JC-1 ratio) under cellular stress ([2]; SK-N-SH cells, relative to 10 μM dimebolin (100% response), FIG. 3): maintained mitochondrial function in a dose dependent manner; also recorded: concentration-dependent enhancement of mitochondrial function maintenance
latency to reenter the dark side (punishment side) (mice): significantly increased; also recorded: concentration-dependent improvement

O=C1C=C(c2ccccc2)C(=O)N1c1cccc(Cl)c1 [1-(3-chlorophenyl)-3-phenyl-pyrrole-2,5-dione]
development of the disease [3]: significantly prevented the development of the disease

Cc1ccc2c(c1)c1c(n2CCc2ccc(C)nc2)CC2CCC1N2C (stereo not drawn) [Example 1, 2,11-dimethyl-5-[2-(6-methylpyridin-3-yl)ethyl]-5,6,7,8,9,10-hexahydro-7,10-epiminocyclohepta[b]indole]
number of neuron-like cells (PC12 cells): concentration-dependent effects

Cc1ccc2c(c1)c1c(n2CCc2ccc(C)nc2)C2CCN(CC2)C1 [Example 2, 9-methyl-6-[2-(6-methylpyridin-3-yl)ethyl]-3,4,5,6-tetrahydro-1H-2,5-ethanoazepino[4,3-b]indole]
Emax [1]: 117%
reduction in mechanical allodynia (Male Sprague Dawley rats; 10 mg/kg intraperitoneal injection, 30 minutes before testing, **p<0.01, ***p<0.001 vs. vehicle, FIG. 6): 58%
adverse effects (Male Sprague Dawley rats; i.p. 1, 3, and 10 mg/kg): No complicating adverse effects were observed
withdrawal threshold for allodynic limb (pressure applied to elicit a pain response) (Male Sprague Dawley rats; intraperitoneally 30 minutes before testing, maximum effect 15 g): concentration-dependent improvement

Cc1ccc2c(c1)c1c(n2CCc2ccc(C)nc2)CCN(C)C1 [dimebolin, 2,3,4,5-tetrahydro-2,8-dimethyl-5-[2-(6-methyl-3-pyridinyl)ethyl]-1H-pyrido[4,3-b]indole]
neurite outgrowth [4]: increase neurite outgrowth
clinical course of disease (improvement over baseline for ADAS-Cog) ([5]; 20 mg three times a day (60 mg/day)): significant improvement
most frequent adverse event ([5]; clinical studies of dimebolin): dry mouth
